Here are results for 3 compounds from patent US10155021B2, “Antimicrobial 4-oxoquinolizines” (Emergent Product Development Gaithersburg Inc., priority 2011, dated 2018).

Converted amounts (≈) assume the structure as drawn. Where two headings read alike, the source gives them in different places. A value given as a limit tells only on which side of the number the result lay.

One experiment has as its system A. Baumanii OXA-51. The experiment is described as follows: MIC, panel of quinolone-resistant strains (CLSI). Format: cell-based. The following applies: Acinetobacter baumannii; CIP R, ESBL.
The next experiment has as its system P. aeruginosa 27853. The experiment is described as follows: MIC, standard panel of Gram-positive and Gram-negative bacteria (CLSI). The format is cell-based, Pseudomonas aeruginosa. The following applies: Pseudomonas aeruginosa, 27853; CAMHB; read-out: MIC P. aeruginosa 27853.
A further experiment relates to B. thailandensis. The experiment is described as follows: microbe, parasite or virus in culture. The format is cell-based, Burkholderia thailandensis. The following applies: Burkholderia thailandensis, read-out: MIC90 B. thailandensis.
The test system of another experiment is A. baumannii A472. The experiment is described as follows: MIC determination for Acinetobacter strains (Example 3). The format is cell-based. The following applies: LEV R, CIP R, MRP I, IMP I, AMK R, TET R.
Experiment [1] relates to A. baumannii A390. The experiment is described as follows: MIC without and with sub-inhibitory polymyxin B (Example 4). The format is cell-based, Acinetobacter baumannii. The following applies: for MIC: Acinetobacter baumannii, A390, A. baumannii A390, without polymyxin B, read-out: MIC without PB.
For another experiment, the system named is S. epidermis 12228. The experiment is described as follows: MIC, standard panel of Gram-positive and Gram-negative bacteria (CLSI). The format is cell-based, Staphylococcus epidermis. Conditions: Staphylococcus, 12228; CAMHB; read-out: MIC S. epidermis 12228.
The next experiment deals with S. aureus 25923. The description is as above. Format: cell-based, Staphylococcus aureus. Conditions: Staphylococcus aureus, 25923; CAMHB; read-out: MIC S. aureus 25923.
For experiment [2], the system named is A. baumannii A387. The experiment is described as follows: MIC without and with sub-inhibitory polymyxin B (Example 4). Format: cell-based, Acinetobacter baumannii. Conditions: for MIC: Acinetobacter baumannii, A387, A. baumannii A387, without polymyxin B, read-out: MIC without PB; for MIC +0.06 μg/ml PB / MIC without PB/MIC + PB: A. baumannii A387; for MIC +0.06 μg/ml PB: +0.06 μg/ml polymyxin B; for MIC without PB/MIC + PB: ratio, PB 0.06 μg/ml.

In a further experiment the test system is S. aureus SMITH. Put plainly: MIC, panel of quinolone-resistant strains (CLSI). The format is cell-based. Conditions: Staphylococcus aureus; CIP R.
Experiment [3] has as its system A. baumannii A489. The experiment is described as follows: Preliminary MBC without and with sub-inhibitory polymyxin B (Example 4). The format is cell-based, Acinetobacter baumannii. The following applies: for MBC: Acinetobacter baumannii, A489, A. baumannii A489, without polymyxin B, read-out: MBC without PB; for MBC +[…] PB: A. baumannii A489, +[…] polymyxin B.
Experiment [4] deals with A. baumannii A390. The experiment is described as follows: MIC determination for Acinetobacter strains (Example 3). The format is cell-based. Conditions: LEV R, CIP R, MRP R, IPM I, AMK R, TET I.
In another experiment the test system is S. pneumoniae 1027. Put plainly: MIC, panel of quinolone-resistant strains (CLSI). The format is cell-based. Conditions: Streptococcus pneumoniae, LEV R.
The next experiment deals with A. baumannii A329. The experiment is described as follows: MIC determination for Acinetobacter strains (Example 3). The format is cell-based. The following applies: LEV R, CIP R, MRP R, IMP R, AMK R, TET R.
For another experiment, the system named is E. coli IMP. Put plainly: microbe, parasite or virus in culture. Conditions: Escherichia coli, read-out: MIC E. coli IMP.
In experiment [5] the test system is A. baumannii ATCC 19606. Put plainly: MIC determination for Acinetobacter strains (Example 3). The format is cell-based. Conditions: ATCC19606, reference strain.
The subject of experiment [6] is A. baumannii A387. The description is as above. Format: cell-based. The following applies: LEV I, CIP R, IPM R, AMK R, TET R.
Experiment [7] relates to A. baumannii A387. Put plainly: Preliminary MBC without and with sub-inhibitory polymyxin B (Example 4). Format: cell-based, Acinetobacter baumannii. The following applies: for MBC +0.06 μg/ml PB: A. baumannii A387, +0.06 μg/ml polymyxin B; for MBC: Acinetobacter baumannii, A387, A. baumannii A387, without polymyxin B, read-out: MBC without PB.
Experiment [8] concerns A. baumannii ATCC 19606. The description is as above. The following applies: preliminary MBC; for MBC +0.06 μg/ml PB: A. baumannii ATCC 19606, +0.06 μg/ml polymyxin B; for MBC: Acinetobacter baumannii, ATCC19606, A. baumannii ATCC 19606, without polymyxin B, read-out: MBC without PB. Format: cell-based, Acinetobacter baumannii.
In experiment [9] the test system is A. baumannii A489. The experiment is described as follows: MIC determination for Acinetobacter strains (Example 3). Format: cell-based. Conditions: LEV R, CIP R, MRP R, IMP R, AMK R, TET R.
Another experiment has as its system A. baumannii A473. The experiment is described as above. The format is cell-based. The following applies: LEV R, CIP R, MRP R, IMP R, AMK R, TET R.
The test system of experiment [10] is 11 strains of A. baumannii and one strain of Acinetobacter sp. The experiment is described as follows: Preliminary MBC without and with sub-inhibitory polymyxin B, whole panel (Example 4; also strains not listed separately). The format is cell-based. The following applies: for MBC +0.06 μg/ml PB: A. baumannii A14, +0.06 μg/ml polymyxin B; for MBC +[…] PB: A. baumannii NCTC 13301, +[…] polymyxin B; for MBC: Acinetobacter baumannii, read-out: MBC without PB.

Another experiment deals with A. baumannii J2. Put plainly: MIC determination for Acinetobacter strains (Example 3). Format: cell-based. The following applies: LEV R, CIP R.
Setting [11] is: A. baumannii A14, without polymyxin B, 1st experiment.
Setting [12] is: A. baumannii A14, without polymyxin B, 2nd experiment.
Where [13] appears, read: NCTC13301, A. baumannii NCTC 13301, without polymyxin B, 1st experiment.

The term MBC denotes the smallest concentration meeting the test's criterion for killing.

For the compound `Cc1c(-c2ccc(N)cc2)ccn2c(=O)c(C(=O)O)cc(C3CC3)c12` [Compound 8, 8-(4-amino-phenyl)-1-cyclopropyl-9-methyl-4-oxo-quinolizine-3-carboxylic acid], the MIC in the experiment with A. Baumanii OXA-51 was 4 µg/mL (≈ 12 µM); in the experiment on P. aeruginosa 27853, 1 µg/mL (≈ 2.99 µM); with A. baumannii A472 it was 4 µg/mL (≈ 12 µM); in the experiment on A. baumannii A390 [1] (1st experiment), 16 µg/mL (≈ 47.9 µM); in the experiment on A. baumannii A390 [1] (2nd experiment, visual reading), 16 µg/mL (≈ 47.9 µM); with S. epidermis 12228 it was less than 0.008 µg/mL. Also, the MIC in the experiment on S. aureus 25923 is less than 0.008 µg/mL; in the experiment on A. baumannii A387 [2] (2nd experiment, visual reading), 1 µg/mL (≈ 2.99 µM); in the experiment on S. aureus SMITH, less than 0.03 µg/mL; against A. baumannii A390 [4], 16 µg/mL (≈ 47.9 µM); against S. pneumoniae 1027 it was 2 µg/mL (≈ 5.98 µM); with A. baumannii A329 it was 16 µg/mL (≈ 47.9 µM). The figures for the MIC with E. coli IMP and against A. baumannii ATCC 19606 [5] were less than 0.008 µg/mL and 1 µg/mL (≈ 2.99 µM), respectively. The MIC90 in the experiment with B. thailandensis was less than 0.024 µg/mL. Also, the minimal bactericidal concentration (MBC) with A. baumannii A489 [3] (2nd experiment) is 8 µg/mL (≈ 23.9 µM).
For the compound `C[C@@H](O)[C@H]1C(=O)N2C(C(=O)O)=C(SCCN=CN)C[C@H]12` [Imipenem, reference compound], the MIC in the experiment on A. baumannii A387 [6] was found to be 16 µg/mL (≈ 53.4 µM); in the experiment on A. baumannii A489 [9] it was 128 µg/mL (≈ 428 µM); in the experiment on A. baumannii A472, 16 µg/mL (≈ 53.4 µM); in the experiment with A. baumannii A390 [1] (1st experiment), 16 µg/mL (≈ 53.4 µM); in the experiment with A. baumannii A390 [1] (2nd experiment, visual reading), 16 µg/mL (≈ 53.4 µM); in the experiment with A. baumannii A473 it was 32 µg/mL (≈ 107 µM). Also, the MIC against A. baumannii J2 turned out to be 4 µg/mL (≈ 13.4 µM); in the experiment with A. baumannii A387 [2] (1st experiment), 16 µg/mL (≈ 53.4 µM); with A. baumannii A387 [2] (2nd experiment, visual reading), 16 µg/mL (≈ 53.4 µM); with A. baumannii A390 [4], 16 µg/mL (≈ 53.4 µM); with A. baumannii A329 it was 128 µg/mL (≈ 428 µM); in the experiment on A. baumannii ATCC 19606 [5], 2 µg/mL (≈ 6.68 µM). The “MBC +0.06 μg/ml PB” value came out at 8 µg/mL in the experiment on A. baumannii A387 [7] (1st experiment); 8 µg/mL with A. baumannii A387 [7] (2nd experiment); 1 µg/mL with A. baumannii ATCC 19606 [8] (2nd experiment); 2 µg/mL with A. baumannii ATCC 19606 [8] (1st experiment); 1 µg/mL in experiment [10] (1st experiment); 0.5 µg/mL in experiment [10] (2nd experiment). Also, the MBC in the experiment on A. baumannii A387 [7] (1st experiment) was determined as 16 µg/mL (≈ 53.4 µM); in the experiment with A. baumannii A387 [7] (2nd experiment), 16 µg/mL (≈ 53.4 µM); in the experiment on A. baumannii ATCC 19606 [8] (2nd experiment), 4 µg/mL (≈ 13.4 µM); in the experiment with A. baumannii ATCC 19606 [8] (1st experiment), 2 µg/mL (≈ 6.68 µM); in experiment [10] (setting [11]) it was 2 µg/mL (≈ 6.68 µM); in experiment [10] (setting [12]) it was 1 µg/mL (≈ 3.34 µM). For the same compound, the MBC in experiment [10] (setting [13]) turned out to be 128 µg/mL (≈ 428 µM); in experiment [10] (NCTC13301, A. baumannii NCTC 13301, without polymyxin B, 2nd experiment) it was 128 µg/mL (≈ 428 µM); in the experiment on A. baumannii A489 [3] (1st experiment), 64 µg/mL (≈ 214 µM); in the experiment on A. baumannii A489 [3] (2nd experiment), 64 µg/mL (≈ 214 µM). For the same compound, the “MIC +0.06 μg/ml PB” value came to 4 µg/mL in the experiment with A. baumannii A390 [1] (A. baumannii A390, +0.06 μg/ml polymyxin B, 2nd experiment, visual reading); 8 µg/mL in the experiment with A. baumannii A387 [2] (1st experiment); 8 µg/mL with A. baumannii A387 [2] (2nd experiment, visual reading). The “MIC without PB/MIC + PB” value with A. baumannii A390 [1] (A. baumannii A390, ratio, PB 0.06 μg/ml, 2nd experiment) is recorded as 4; in the experiment on A. baumannii A387 [2] (1st experiment), 2; in the experiment with A. baumannii A387 [2] (2nd experiment) it was 2. Moreover, the “MBC +[…] PB” value in [10] (1st experiment) was 16 µg/mL (≈ 53.4 µM); in experiment [10] (2nd experiment) it was 0.5 µg/mL (≈ 1.67 µM); in the experiment on A. baumannii A489 [3] (1st experiment), 2 µg/mL (≈ 6.68 µM); against A. baumannii A489 [3] (2nd experiment) it was 0.25 µg/mL (≈ 0.835 µM).
Regarding `C[C@H]1COc2c(N3CCN(C)CC3)c(F)cc3c(=O)c(C(=O)O)cn1c23` [Levofloxacin, reference compound], the MBC in the experiment with A. baumannii ATCC 19606 [8] (2nd experiment) came to 1 µg/mL (≈ 2.77 µM); in the experiment on A. baumannii ATCC 19606 [8] (1st experiment) it was 0.5 µg/mL (≈ 1.38 µM); in experiment [10] (setting [11]), 32 µg/mL (≈ 88.6 µM); in experiment [10] (setting [12]), 32 µg/mL (≈ 88.6 µM); in experiment [10] (setting [13]), 32 µg/mL (≈ 88.6 µM); in the experiment with A. baumannii A489 [3] (1st experiment), 32 µg/mL (≈ 88.6 µM). The MIC with A. baumannii J2 came out at 32 µg/mL (≈ 88.6 µM); against S. aureus SMITH, 8 µg/mL (≈ 22.1 µM); in the experiment with S. pneumoniae 1027 it was 16 µg/mL (≈ 44.3 µM); against A. baumannii A329 it was 32 µg/mL (≈ 88.6 µM); with A. baumannii ATCC 19606 [5], 1 µg/mL (≈ 2.77 µM).
